Patent publication US20130079228A1, “Agricultural spray solution compositions and methods” (priority 2011, published 2013)

Test system: velvetleaf
Experiment: efficacy of glyphosate spray on velvetleaf
Type: in vivo
Settings: in presence of drift reducing adjuvants, especially DR
Excerpt: Applicant's invention further contemplates the use of drift management adjuvants on the atomization, drift, patternation, retention, deposit formation, and efficacy of an herbicide spray. The drift of the spray particles decreases by suppressing the formation of fine droplets, i.e., <150 microns in diameter. The impact of drift reducing additives on pesticide efficacy in terms of the effect on the major phases, i.e., the larger droplets, on the dose transfer process is also considered. Two representative drift reducing adjuvants, i.e., (1) polyacrylamide polymers represented by Nalcotrol or Nalcotrol II (N or N2), and (2) biodegradable polymers represented by AgRHO DR-2000 (DR) of Rhone-Poulenc Inc. were considered in mixtures containing glyphosate.
Pattern distributions undergo significant deviations from even distributions using herbicide alone when polymers are added. […] 30% less spray is reflected from the cabbage leaves from mixtures containing DR compared to either water alone or water containing polyacrylamide polymers. Spray retention is reduced by the addition of drift reducing adjuvants. DR is better at wetting the cabbage leaves. […] The efficacy of glyphosate on velvetleaf is enhanced by the presence of drift reducing adjuvants, especially DR. […]

## O=C(O)CNCP(=O)(O)O [glyphosate]
  efficacy of glyphosate on velvetleaf: enhanced
